{"source": "patent US11793982B2", "about": "“Drug delivery devices and methods of fabrication and use therefor” (Purdue Research Foundation, priority 2020, dated 2023)", "key": {"mice": {"test_system": "mice", "conditions": "cited from earlier work"}, "[1]": {"test_system": "B16F10 murine melanoma cells", "conditions": "cited from earlier work"}, "B16F10 melanoma cells": {"test_system": "B16F10 melanoma cells", "test": "Murine melanoma model, inhibition of post-surgical residual melanoma", "format": "in vivo, C57BL/6 mice"}, "[2]": {"test_system": "epidermis and subcutaneous muscle on the backside of mice", "test": "In vivo tissue compatibility, real-time bioluminescence (luminol) imaging of acute inflammation", "conditions": "five hours post-injection"}}}
{"smiles": "COc1cccc2c1C(=O)c1c(O)c3c(c(O)c1C2=O)C[C@@](O)(C(=O)CO)C[C@@H]3O[C@H]1C[C@H](N)[C@H](O)[C@H](C)O1", "note": "[DOX, doxorubicin]", "values": [{"measurement": "lethal dose (LD50)", "setting": "mice", "result": "about 192 μg"}, {"measurement": "half maximal inhibitory concentration (IC50)", "setting": "[1]", "result": "about 0.3 μg/ml"}, {"measurement": "mice with significant growth of the tumors", "setting": "B16F10 melanoma cells; intratumoral syringe injection, single dose 50 μl, n=5, ten days post-inoculation", "result": "four out of five mice"}, {"measurement": "local skin lesions", "setting": "B16F10 melanoma cells; syringe injection", "result": "local skin lesions were observed"}]}
{"smiles": "CCCCCCCCCCCCCC(=O)O[C@@H]1[C@@H](C)[C@@]2(O)[C@@H](C=C(CO)C[C@]3(O)C(=O)C(C)=C[C@@H]23)[C@@H]2C(C)(C)[C@]12OC(C)=O", "note": "[PMA, phorbol 12-myristate 13-acetate]", "values": [{"measurement": "acute inflammation at the implemented sites", "setting": "[2]", "result": "acute inflammation appeared"}]}
